From patent US12173005B1, “Pyrimido[1′,6′:1,5]pyrazolo[4,3-b][1,7]naphthyridine compounds as CK2 inhibitors” (KING FAISAL UNIVERSITY, priority 2023, dated 2024)

Tests used:
A375 (melanoma) = experiment: MTT in vitro cytotoxic activity assay, A375; assay type: cell-based; details: Homo sapiens, A-375; cells exposed for 96 hours; 50% inhibition of cell proliferation; read-out: Cytotoxicity activity IC50, A375 (melanoma)
Procedure: (§1) Compounds 1-16 were screened for their in vitro cytotoxic activity utilizing a 3-(4,5-dimethyl-thiazol-2-yl)-2,5-diphenyltetrazolium bromide (MTT) assay against selected cancer human cell lines consisting of PC3 (prostate), HCT116 (colon), A375 (melanoma), H1299 (lung), MIAPaCa-2 (pancreas), HL60 (leukemia), MCF7 (breast), MDA-MB-231 (breast) (T. Mosmann, J. Immunol. Meth., 1983, 65, 55-63). The cells were cultured at 37° C. in RMPI1640 medium supplemented with 10% fetal bovine serum, 50 IU/mL penicillin, and 50 μg/mL streptomycin in a 5% CO2 incubator. All cells were sub-cultured 3 times/week by trypsinisation. Viable cells were seeded and allowed to adhere for 12 h before a test drug was added in 96-well plates at an initial density of 1.0×10^5 cells/mL. Tumor cell lines were separately exposed to various concentrations of the tested compounds followed by incubation at a temperature of 37° C. during 96 hours inside a medium of fresh RMPI 1640. Cells were subsequently incubated at 37° C. using MTT at 0.5 mg/mL during 4 hours. After removal of supernatant, formazan crystals were dissolved in isopropanol and the optical density was measured at 570 nm. CX-4945 was used as a positive control.

MDA-MB-231 (breast) = experiment: MTT in vitro cytotoxic activity assay, MDA-MB-231; assay type: cell-based; details: Homo sapiens, cells exposed for 96 hours, 50% inhibition of cell proliferation, read-out: Cytotoxicity activity IC50, MDA-MB-231 (breast)
Procedure: as §1

[1] = molecular target: T1, recombinant human CK2 (RRββ-holoenzyme) (Homo sapiens, UniProt P68400); experiment: CK2 Kinase Assay (radiometric, [γ-33P] ATP); assay type: biochemical; details: final ATP concentration 15 μM; 10 min at 30° C.; read-out: protein kinase CK2 IC50
T1 construct: purchased Millipore
Procedure: CK2 Kinase Assay was conducted using the protocol as described in Pierre F. et al; J. Med. Chem. 2011, 54, 635-654. The tested compounds in aqueous solution were added at a volume of 10 μL to a reaction mixture comprising 10 μL of assay dilution buffer (ADB; 20 mM MOPS, pH 7.2, 25 mM β-glycerol phosphate, 5 mM EGTA, 1 mM sodium orthovanadate, and 1 mM dithiothreitol), 10 μL of substrate peptide (RRRDDDSDDD, dissolved in ADB at a concentration of 1 mM), 10 μL of recombinant human CK2 (RRββ-holoenzyme, 25 ng dissolved in ADB; Millipore). Reactions were initiated by the addition of 10 μL of ATP solution (90% 75 mMMgCl2, 75 μM ATP (final ATP concentration: 15 μM) dissolved in ADB; 10% [γ-33P] ATP (stock 1mCi/100 μL; 3000 Ci/mmol (Perkin-Elmer) and maintained for 10 min at 30° C. The reactions were quenched with 100 μL of 0.75% phosphoric acid and then transferred to and filtered through a phosphor cellulose filter plate (Millipore). After washing each well five times with 0.75% phosphoric acid, the plate was dried under vacuum for 5 min and, following the addition of 15 μL of scintillation fluid to each well, the residual radioactivity was measured using a Wallac luminescence counter. The IC50 values were derived from eight concentrations of test inhibitors.

MIAPaCa-2 (pancreas) = experiment: MTT in vitro cytotoxic activity assay, MIAPaCa-2; assay type: cell-based; details: Homo sapiens, MIA PaCa-2; cells exposed for 96 hours; 50% inhibition of cell proliferation; read-out: Cytotoxicity activity IC50, MIAPaCa-2 (pancreas)
Procedure: as §1

PC3 (prostate) = experiment: MTT in vitro cytotoxic activity assay, PC3; assay type: cell-based; details: Homo sapiens; cells exposed for 96 hours; 50% inhibition of cell proliferation; read-out: Cytotoxicity activity IC50, PC3 (prostate)
Procedure: as §1

H1299 (lung) = experiment: MTT in vitro cytotoxic activity assay, H1299; assay type: cell-based; details: Homo sapiens, NCI-H1299; cells exposed for 96 hours; 50% inhibition of cell proliferation; read-out: Cytotoxicity activity IC50, H1299 (lung)
Procedure: as §1

MCF7 (breast) = experiment: MTT in vitro cytotoxic activity assay, MCF7; assay type: cell-based; details: Homo sapiens, cells exposed for 96 hours, 50% inhibition of cell proliferation, read-out: Cytotoxicity activity IC50, MCF7 (breast)
Procedure: as §1

HCT116 (colon) = experiment: MTT in vitro cytotoxic activity assay, HCT116; assay type: cell-based; details: Homo sapiens, HCT-116; cells exposed for 96 hours; 50% inhibition of cell proliferation; read-out: Cytotoxicity activity IC50, HCT116 (colon)
Procedure: as §1

HL60 (leukemia) = experiment: MTT in vitro cytotoxic activity assay, HL60; assay type: cell-based; details: Homo sapiens, HL-60; cells exposed for 96 hours; 50% inhibition of cell proliferation; read-out: Cytotoxicity activity IC50, HL60 (leukemia)
Procedure: as §1

T1 sequence (P68400 whole entry): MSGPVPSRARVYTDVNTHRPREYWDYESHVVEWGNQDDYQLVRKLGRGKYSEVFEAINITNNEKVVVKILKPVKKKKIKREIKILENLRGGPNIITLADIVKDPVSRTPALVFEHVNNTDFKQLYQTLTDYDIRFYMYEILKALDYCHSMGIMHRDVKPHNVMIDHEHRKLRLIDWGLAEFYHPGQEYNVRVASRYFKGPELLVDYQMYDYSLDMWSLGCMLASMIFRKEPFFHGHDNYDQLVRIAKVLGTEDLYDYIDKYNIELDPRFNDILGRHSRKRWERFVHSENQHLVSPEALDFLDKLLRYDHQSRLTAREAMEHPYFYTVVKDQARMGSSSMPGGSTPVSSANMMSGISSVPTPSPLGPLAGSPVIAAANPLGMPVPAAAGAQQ
T1 sequence (P67870 whole entry partner): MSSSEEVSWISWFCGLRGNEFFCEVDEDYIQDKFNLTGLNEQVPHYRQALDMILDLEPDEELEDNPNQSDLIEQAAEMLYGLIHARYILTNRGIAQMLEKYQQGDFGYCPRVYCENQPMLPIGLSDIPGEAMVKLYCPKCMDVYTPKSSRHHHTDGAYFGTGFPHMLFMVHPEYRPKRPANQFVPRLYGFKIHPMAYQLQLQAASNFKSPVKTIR

Clc1cccc(Nc2c3ccncc3nc3c2nn2cnccc32)c1 [Compound 1, N-(3-chlorophenyl)pyrimido[1′,6′:1,5]pyrazolo[4,3-b][1,7]naphthyridin-10-amine] showed an IC50 (A375 (melanoma)) of 3.2 µM, an IC50 (MDA-MB-231 (breast)) of 5.1 µM and an IC50 [1] of 92 nM. For the same compound, the IC50 (MIAPaCa-2 (pancreas)) was 1200 nM, the IC50 (PC3 (prostate)) was 1500 nM and the IC50 (H1299 (lung)) was 2900 nM. It also gave an IC50 (MCF7 (breast)) of 6.5 µM, an IC50 (HCT116 (colon)) of 1300 nM and an IC50 (HL60 (leukemia)) of 2700 nM.
